Assay results: PMC10451299, “Phytochemical Constituents and Biological Activity of Wild and Cultivated Rosmarinus officinalis Hydroalcoholic Extracts” (Antioxidants, 2023)
Marks after values point to notes of the source that are not given here.

Assays:
AChE = conditions: cited from earlier work
[1] = DPPH radical scavenging assay; conditions: mean ± SD, three experiments
Description: The antiradical activity was determined using the stable 1,1-diphenyl-2-picrylhydrazyl radical (DPPH) following the protocol of Brand-Williams with some modifications reported by De Martino and coworkers.

[2] = FRAP (ferric ion reducing antioxidant power) assay; conditions: mean ± SD, three experiments

Row | Compound | activity on AChE (AChE) | effect on the AChE enzyme (AChE) | DPPH IC50 (concentration required to reduce the absorbance of DPPH by 50%) [1] | FRAP [2]
1 | COc1ccc(-c2cc(=O)c3c(O)c(OC)c(OC)cc3o2)cc1 [salvigenin, Salvigenin] | not active | stimulating effect |  | 
2 | Cc1c(C)c2c(c(C)c1O)CCC(C)(C(=O)O)O2 (stereo not shown) [Trolox, 6-hydroxy-2,5,7,8-tetramethylchroman-2-carboxylic acid] |  |  | 3.65 ± 0.08 ^c µg/mL | 5.48 ± 0.34 ^a mmol Fe^2+ Equivalents/g Extract
